Converted amounts (≈) assume the structure as drawn.
Legend:
Enterococcus faecium [1] = experiment: Antibacterial activity against Enterococcus faecium ATCC 19434; assay type: functional
Enterococcus faecalis [2] = experiment: Antibacterial activity against Enterococcus faecalis ATCC 29212; assay type: functional
Enterococcus faecalis [3] = experiment: Antibacterial activity against Enterococcus faecalis SR7914 (VRE); assay type: functional
[4] = biological target: T1, Phospho-N-acetylmuramoyl-pentapeptide-transferase (Staphylococcus aureus, UniProt P0C1R8); experiment: Inhibition of MraY in Staphylococcus aureus
T1 sequence (P0C1R8 whole entry): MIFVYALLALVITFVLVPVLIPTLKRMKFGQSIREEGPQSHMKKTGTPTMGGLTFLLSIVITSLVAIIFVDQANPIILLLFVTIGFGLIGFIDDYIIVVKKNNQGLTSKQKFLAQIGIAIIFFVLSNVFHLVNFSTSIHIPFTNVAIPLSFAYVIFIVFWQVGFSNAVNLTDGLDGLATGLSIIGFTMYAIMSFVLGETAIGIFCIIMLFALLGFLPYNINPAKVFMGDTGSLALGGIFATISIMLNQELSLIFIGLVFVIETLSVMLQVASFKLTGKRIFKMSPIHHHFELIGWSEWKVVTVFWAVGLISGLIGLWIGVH

Staphylococcus aureus [5] = experiment: Antibacterial activity against methicillin susceptible Staphylococcus aureus ATCC 29213; assay type: functional
Staphylococcus aureus [6] = experiment: Antibacterial activity against methicillin resistant Staphylococcus aureus SR3637; assay type: functional
Enterococcus faecium [7] = experiment: Antibacterial activity against Enterococcus faecium SR7917 (VRE); assay type: functional
[8] = biological target: T2, Phospho-N-acetylmuramoyl-pentapeptide-transferase (Aquifex aeolicus (strain VF5), UniProt O66465); experiment: Inhibition of MraY in Aquifex aeolicus
T2 sequence (O66465 whole entry): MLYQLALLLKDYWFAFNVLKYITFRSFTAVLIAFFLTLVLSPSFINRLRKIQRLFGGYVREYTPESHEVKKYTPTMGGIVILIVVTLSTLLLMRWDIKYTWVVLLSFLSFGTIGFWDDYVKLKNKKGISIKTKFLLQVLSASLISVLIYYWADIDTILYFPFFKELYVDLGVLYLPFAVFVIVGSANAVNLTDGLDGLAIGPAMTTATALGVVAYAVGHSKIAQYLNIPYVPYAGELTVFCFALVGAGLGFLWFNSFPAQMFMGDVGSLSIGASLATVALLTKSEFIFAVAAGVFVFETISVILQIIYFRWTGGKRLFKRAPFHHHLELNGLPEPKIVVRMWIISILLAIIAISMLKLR

Escherichia coli = experiment: Antibacterial activity against Escherichia coli ATCC 8730; assay type: functional
Citrobacter freundii = experiment: Antibacterial activity against Citrobacter freundii ATCC 8090; assay type: functional
Pseudomonas aeruginosa = experiment: Antibacterial activity against Pseudomonas aeruginosa ATCC 27853; assay type: functional
Staphylococcus aureus [9] = experiment: Antibacterial activity against Staphylococcus aureus ATCC 25923; assay type: functional
Staphylococcus aureus [10] = experiment: Antibacterial activity against methicillin resistant Staphylococcus aureus ATCC 43300; assay type: functional
[11] = biological target: T3, Phospho-N-acetylmuramoyl-pentapeptide-transferase (Bacillus subtilis (strain 168), UniProt Q03521); experiment: Inhibition of MraY in Bacillus subtilis
T3 sequence (Q03521 whole entry): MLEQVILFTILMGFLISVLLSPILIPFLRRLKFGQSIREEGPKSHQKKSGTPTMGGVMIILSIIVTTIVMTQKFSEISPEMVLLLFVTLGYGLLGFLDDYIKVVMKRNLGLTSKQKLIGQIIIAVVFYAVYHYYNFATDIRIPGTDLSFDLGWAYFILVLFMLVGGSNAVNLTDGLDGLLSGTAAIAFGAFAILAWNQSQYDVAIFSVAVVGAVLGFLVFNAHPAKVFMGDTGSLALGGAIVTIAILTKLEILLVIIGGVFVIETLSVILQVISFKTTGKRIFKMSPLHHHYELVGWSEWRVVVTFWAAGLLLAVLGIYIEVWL

Haemophilus influenzae [12] = experiment: Antibacterial activity against Haemophilus influenzae after 20 hrs by NCCLS-based two-fold broth dilution method; assay type: functional
Haemophilus influenzae [13] = experiment: Antibacterial activity against Haemophilus influenzae ATCC 10211; assay type: functional
Enterococcus faecalis [14] = experiment: Antibacterial activity against t Enterococcus faecalis after 20 hrs by NCCLS-based two-fold broth dilution method; assay type: functional; conditions: read-out: MIC
Enterococcus faecalis [15] = experiment: Antibacterial activity against t Enterococcus faecalis VRE after 20 hrs by NCCLS-based two-fold broth dilution method; assay type: functional; conditions: read-out: MIC
Staphylococcus aureus [16] = experiment: Antibacterial activity against methicillin resistant Staphylococcus aureus after 20 hrs by NCCLS-based two-fold broth dilution method; assay type: functional; conditions: read-out: MIC
Staphylococcus aureus [17] = experiment: Antibacterial activity against methicillin susceptible Staphylococcus aureus after 20 hrs by NCCLS-based two-fold broth dilution method; assay type: functional; conditions: read-out: MIC
Enterococcus faecium [18] = experiment: Antibacterial activity against t Enterococcus faecium after 20 hrs by NCCLS-based two-fold broth dilution method; assay type: functional
Enterococcus faecium [19] = experiment: Antibacterial activity against t Enterococcus faecium VRE after 20 hrs by NCCLS-based two-fold broth dilution method; assay type: functional; conditions: read-out: MIC

Row | SMILES | MIC (Enterococcus faecium [1]) [µg/mL] | IC50 [8] [µM] | MIC (Escherichia coli) [µg/mL] | MIC (Citrobacter freundii) [µg/mL] | MIC (Pseudomonas aeruginosa) [µg/mL] | MIC (Staphylococcus aureus [9]) [µg/mL] | MIC (Staphylococcus aureus [10]) [µg/mL] | also measured
1 | CCCCCCCCCCCCCCCCC[C@H]1CN(C)[C@@H]([C@H](O[C@@H]2O[C@H](CN)[C@@H](O)[C@H]2O)[C@H]2O[C@@H](n3ccc(=O)[nH]c3=O)[C@H](O)[C@@H]2O)C(=O)N(C)[C@@H]1C(=O)O | 8 (≈ 10 µM) | – | – | – | – | – | – | MIC (Enterococcus faecalis [2]): 4 µg/mL (≈ 5.01 µM); MIC (Enterococcus faecalis [3]): 8 µg/mL (≈ 10 µM); IC50 [4]: 6.9 µM; MIC (Staphylococcus aureus [5]): 8 µg/mL (≈ 10 µM); MIC (Staphylococcus aureus [6]): 8 µg/mL (≈ 10 µM); MIC (Enterococcus faecium [7]): 8 µg/mL (≈ 10 µM)
2 | CCCCCCCCCCn1cc(C[C@H](O[C@@H]2O[C@H](CN)[C@@H](O)[C@H]2O)[C@H]2O[C@@H](n3ccc(=O)[nH]c3=O)[C@H](O)[C@@H]2O)nn1 | > 128 | 15 | > 128 | > 128 | > 128 | 128 (≈ 215 µM) | 64 (≈ 107 µM) | –
3 | NC[C@H]1O[C@@H](O[C@@H](Cc2cn(Cc3ccc(COc4ccc(C(=O)c5ccccc5)cc4)cc3)nn2)[C@H]2O[C@@H](n3ccc(=O)[nH]c3=O)[C@H](O)[C@@H]2O)[C@H](O)[C@@H]1O | > 128 | 20 | > 128 | > 128 | > 128 | 64 (≈ 84.6 µM) | 32 (≈ 42.3 µM) | –
4 | NC[C@H]1O[C@@H](O[C@@H](c2cn(CCCCCOc3ccc(C(=O)c4ccccc4)cc3)nn2)[C@H]2O[C@@H](n3ccc(=O)[nH]c3=O)[C@H](O)[C@@H]2O)[C@H](O)[C@@H]1O | > 128 | – | > 128 | > 128 | > 128 | > 128 | 64 (≈ 90.3 µM) | IC50 [11]: 100 µM
5 | CCCCCCCCCCc1cn(C[C@H](O[C@@H]2O[C@H](CN)[C@@H](O)[C@H]2O)[C@H]2O[C@@H](n3ccc(=O)[nH]c3=O)[C@H](O)[C@@H]2O)nn1 | > 128 | 35 | > 128 | > 128 | 128 (≈ 215 µM) | 16 (≈ 26.8 µM) | 64 (≈ 107 µM) | –
6 | CCCCCCCCCCCCCCCC(=O)OC[C@H]1[C@@H](C(=O)N(C)C)[C@H]([C@H]2O[C@@H](n3ccc(=O)[nH]c3=O)[C@H](O)[C@@H]2O)ON1CCCN | – | – | – | – | – | – | – | MIC (Haemophilus influenzae [12]): 1 µg/mL (≈ 1.47 µM); MIC (Haemophilus influenzae [13]): 1 µg/mL (≈ 1.47 µM)
7 | NC[C@H]1O[C@@H](O[C@@H](Cn2cc(CCCCCCCCCCOc3ccc(C(=O)c4ccccc4)cc3)nn2)[C@H]2O[C@@H](n3ccc(=O)[nH]c3=O)[C@H](O)[C@@H]2O)[C@H](O)[C@@H]1O | 128 (≈ 161 µM) | 25 | > 128 | > 128 | > 128 | 16 (≈ 20.2 µM) | 8 (≈ 10.1 µM) | –
8 | CCCCCCCCCCCCCCCCC[C@@H]1CN[C@@H]([C@H](O[C@@H]2O[C@H](CN)[C@@H](O)[C@H]2O)[C@H]2O[C@@H](n3ccc(=O)[nH]c3=O)[C@H](O)[C@@H]2O)C(=O)N(C)[C@@H]1C(=O)O | 8 (≈ 10.2 µM) | – | – | – | – | – | – | MIC (Enterococcus faecalis [14]): 4 µg/mL (≈ 5.1 µM); MIC (Enterococcus faecalis [15]): 8 µg/mL (≈ 10.2 µM); MIC (Staphylococcus aureus [16]): 4 µg/mL (≈ 5.1 µM); MIC (Staphylococcus aureus [17]): 4 µg/mL (≈ 5.1 µM); MIC (Enterococcus faecium [18]): 8 µg/mL (≈ 10.2 µM); MIC (Enterococcus faecium [19]): 8 µg/mL (≈ 10.2 µM); MIC (Enterococcus faecalis [2]): 8 µg/mL (≈ 10.2 µM); MIC (Enterococcus faecalis [3]): 16 µg/mL (≈ 20.4 µM); MIC (Staphylococcus aureus [5]): 8 µg/mL (≈ 10.2 µM); MIC (Staphylococcus aureus [6]): 8 µg/mL (≈ 10.2 µM); MIC (Enterococcus faecium [7]): 16 µg/mL (≈ 20.4 µM)
9 | NC[C@H]1O[C@@H](O[C@@H](c2cn(Cc3ccc(COc4ccc(C(=O)c5ccccc5)cc4)cc3)nn2)[C@H]2O[C@@H](n3ccc(=O)[nH]c3=O)[C@H](O)[C@@H]2O)[C@H](O)[C@@H]1O | > 128 | 75 | > 128 | > 128 | > 128 | > 128 | 32 (≈ 43.1 µM) | IC50 [11]: 50 µM
